In ChEMBL document CHEMBL5614368, “Fyn, Blk, and Lyn kinase inhibitors: A mini-review on medicinal attributes, research progress, and future insights” (Bioorg Med Chem Lett, 2024):

Legend:
[1] = target: Tyrosine-protein kinase Fyn (Homo sapiens, UniProt P06241); experiment: Inhibition of full-length human recombinant Fyn using Poly(Glu4, Tyr1) as substrate measured for 60 mins by Kinase-Glo reagent based analysis
[2] = target: Proto-oncogene tyrosine-protein kinase Src (Homo sapiens, UniProt P12931); experiment: Binding affinity to SRC (unknown origin) assessed as inhibition constant
Chain of Proto-oncogene tyrosine-protein kinase Src (P12931 2-536 limits assumed): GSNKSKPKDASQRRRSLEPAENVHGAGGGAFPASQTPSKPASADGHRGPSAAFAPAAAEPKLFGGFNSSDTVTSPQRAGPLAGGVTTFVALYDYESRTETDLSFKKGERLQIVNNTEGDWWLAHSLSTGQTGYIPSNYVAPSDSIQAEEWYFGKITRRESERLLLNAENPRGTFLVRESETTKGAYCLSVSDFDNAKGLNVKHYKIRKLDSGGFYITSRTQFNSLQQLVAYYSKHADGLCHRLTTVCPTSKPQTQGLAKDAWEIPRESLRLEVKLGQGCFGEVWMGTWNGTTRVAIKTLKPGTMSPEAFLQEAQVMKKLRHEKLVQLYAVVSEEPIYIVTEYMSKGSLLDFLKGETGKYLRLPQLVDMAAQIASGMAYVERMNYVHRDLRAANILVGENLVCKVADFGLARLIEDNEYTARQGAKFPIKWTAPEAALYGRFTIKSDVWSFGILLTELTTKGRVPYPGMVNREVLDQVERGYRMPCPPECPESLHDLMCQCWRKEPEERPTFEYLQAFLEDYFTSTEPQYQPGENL

[3] = target: Tyrosine-protein kinase Lyn (Homo sapiens) (UniProt P07948); experiment: Inhibition of LYN (unknown origin) at 0.1 uM relative to control
Chain of Tyrosine-protein kinase Lyn (Homo sapiens) (P07948 2-512 limits assumed): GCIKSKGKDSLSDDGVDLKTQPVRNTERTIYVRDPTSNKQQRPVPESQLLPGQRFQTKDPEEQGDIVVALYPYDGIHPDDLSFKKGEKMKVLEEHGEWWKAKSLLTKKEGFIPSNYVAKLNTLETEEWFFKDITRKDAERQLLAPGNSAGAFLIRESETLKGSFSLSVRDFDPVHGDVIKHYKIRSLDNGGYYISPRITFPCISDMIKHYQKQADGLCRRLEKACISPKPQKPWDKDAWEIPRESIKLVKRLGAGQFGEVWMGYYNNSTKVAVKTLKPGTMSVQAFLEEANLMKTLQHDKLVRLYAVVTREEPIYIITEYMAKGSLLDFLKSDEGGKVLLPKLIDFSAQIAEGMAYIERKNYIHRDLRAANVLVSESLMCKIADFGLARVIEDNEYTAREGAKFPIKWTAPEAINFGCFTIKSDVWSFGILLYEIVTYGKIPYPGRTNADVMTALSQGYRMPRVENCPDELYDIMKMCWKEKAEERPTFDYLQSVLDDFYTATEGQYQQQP

Chain of Tyrosine-protein kinase Fyn (P06241 whole entry): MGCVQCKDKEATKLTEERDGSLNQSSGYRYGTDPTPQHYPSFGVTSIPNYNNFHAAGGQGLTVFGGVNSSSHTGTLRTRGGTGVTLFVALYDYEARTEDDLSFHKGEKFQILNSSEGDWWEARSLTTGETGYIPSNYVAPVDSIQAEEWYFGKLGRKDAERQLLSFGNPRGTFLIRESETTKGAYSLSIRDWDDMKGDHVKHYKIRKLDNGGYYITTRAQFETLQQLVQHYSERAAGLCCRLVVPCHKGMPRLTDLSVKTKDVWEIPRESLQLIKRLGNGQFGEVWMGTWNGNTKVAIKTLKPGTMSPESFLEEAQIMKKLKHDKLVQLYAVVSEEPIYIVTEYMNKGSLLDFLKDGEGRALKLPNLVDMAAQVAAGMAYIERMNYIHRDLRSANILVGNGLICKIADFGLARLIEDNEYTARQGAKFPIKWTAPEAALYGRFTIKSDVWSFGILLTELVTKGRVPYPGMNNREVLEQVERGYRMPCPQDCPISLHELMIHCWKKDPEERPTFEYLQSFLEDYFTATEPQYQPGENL

Structure (SMILES)	IC50 [1]	other results
Cc1nnc(NC2CCCCC2)nc1O	760 nM	
Oc1ccc(F)c(Nc2nc(SCCN3CCOCC3)nc3c2cnn3CC(Cl)c2ccccc2)c1 (centres undefined)		Ki [2]: 170 nM
Cc1n[nH]c(Nc2ccc3c(c2)OCO3)nc1=O	4800 nM	
CSc1ccc(C(=O)NCc2cc3c(=O)[nH]c(N)nc3[nH]2)cc1		inhibition [3]: 42%
